According to ChEMBL document CHEMBL1129582, “Lipophilic, acid-stable, adenosine deaminase-activated anti-HIV prodrugs for central nervous system delivery. 3. 6-Amino prodrugs of 2'-beta-fluoro-2',3'-dideoxyinosine” (J Med Chem, 1996):

Tests used:
[1] = Partition coefficient (logP); format: physicochemical; conditions: octanol/water
[2] = Anti-HIV activity by using phytohemagglutininin-stimulated peripheral blood mononuclear cell(PHA/PBM) test system; format: functional; conditions: Homo sapiens

Structure (SMILES) | logP [1] | IC50 [2] [µM]
O=c1[nH]cnc2c1ncn2[C@H]1CC[C@@H](CO)O1 [DIDANOSINE] |  | 0.3
CCNc1ncnc2c1ncn2C1OC(CO)CC1F (centres undefined) | 0.779 | 11.1
CONc1ncnc2c1ncn2C1OC(CO)CC1F (centres undefined) | -0.414 | > 80
OCC1CC(F)C(n2cnc3c(Cl)ncnc32)O1 (centres undefined) |  | 5.9
O=[N+]([O-])c1ncnc2c1ncn2C1OC(CO)CC1F (centres undefined) | -0.395 | 9.6
OCC1CC(F)C(n2cnc3c(O)ncnc32)O1 (centres undefined) |  | 6.3
OCC1CC(F)C(n2cnc3c(F)ncnc32)O1 (centres undefined) |  | > 5
Nc1ncnc2c1ncn2[C@@H]1O[C@H](CO)C[C@@H]1F [LODENOSINE] |  | 3.3

Second part, the compound after the results:

logP [1] | IC50 [2] [µM] | Structure (SMILES)
0.797 | 18 | CN(C)c1ncnc2c1ncn2C1OC(CO)CC1F (centres undefined)
 | 36.3 | NNc1ncnc2c1ncn2C1OC(CO)CC1F (centres undefined)
 | 13.1 | CNc1ncnc2c1ncn2C1OC(CO)CC1F (centres undefined)
-0.983 | 6.8 | OCC1CC(F)C(n2cnc3c(NO)ncnc32)O1 (centres undefined)
1.25 | > 80 | OCC1CC(F)C(n2cnc3c(NOCc4ccccc4)ncnc32)O1 (centres undefined)
